Data set [1] in a line: Solubility in selected solvents. Type of data set: physicochemical. The conditions noted are these: thermodynamic from solid. As to the method:
The solubility of Compound 2 acetate was investigated with regard to potential process and formulation solvents. The solubility of Compound 2 acetate was evaluated by preparing saturated solution of Compound 2 in the selected solvents, filtering the samples (0.22 μm), diluting, and determining concentration by external standard HPLC using a rapid analysis assay.

A short description of data set [2]: Moisture sorption/desorption analysis for hygroscopicity. Type of data set: physicochemical. As to conditions: for hygroscopicity: moisture sorption/desorption behavior; for initial weight loss upon equilibration: at 5% RH; for total weight gain: at 95% RH. The source says: This weight was gradually regained by approximately 75% RH with a total weight gain of approximately 0.64% at 95% RH. Slightly more weight was lost during desorption with litle hysterisis.
The moisture sorption/desorption profiles of Compound 2 hydrochloride, Compound 2 acetate, and compound 2 adipate are presented in Table 7. […] Relative humidity was then increased and weight measurements taken at regular intervals. Change is given as percent of original sample.

Data set [3] has as its system LPS Induced iNOS. The conditions noted are these: rat; cited from earlier work.
The target of data set [4] is T1, hiNOS (Homo sapiens, UniProt P35228).
T1 construct: expressed in transfected cells; host or cells: HEK293
The conditions noted are these: DAN assay, HEK293 cells transfected with NOS isoform; cited from earlier work.

Data set [5] addresses T2, hnNOS (Homo sapiens, UniProt P29475).
T2 construct: expressed in transfected cells; host or cells: HEK293
As to conditions: DAN assay, HEK293 cells transfected with NOS isoform; cited from earlier work.

Data set [6] addresses T3, heNOS (Homo sapiens, UniProt P29474).
T3 construct: expressed in transfected cells; host or cells: HEK293
T3 sequence (P29474 2-1203 limits assumed): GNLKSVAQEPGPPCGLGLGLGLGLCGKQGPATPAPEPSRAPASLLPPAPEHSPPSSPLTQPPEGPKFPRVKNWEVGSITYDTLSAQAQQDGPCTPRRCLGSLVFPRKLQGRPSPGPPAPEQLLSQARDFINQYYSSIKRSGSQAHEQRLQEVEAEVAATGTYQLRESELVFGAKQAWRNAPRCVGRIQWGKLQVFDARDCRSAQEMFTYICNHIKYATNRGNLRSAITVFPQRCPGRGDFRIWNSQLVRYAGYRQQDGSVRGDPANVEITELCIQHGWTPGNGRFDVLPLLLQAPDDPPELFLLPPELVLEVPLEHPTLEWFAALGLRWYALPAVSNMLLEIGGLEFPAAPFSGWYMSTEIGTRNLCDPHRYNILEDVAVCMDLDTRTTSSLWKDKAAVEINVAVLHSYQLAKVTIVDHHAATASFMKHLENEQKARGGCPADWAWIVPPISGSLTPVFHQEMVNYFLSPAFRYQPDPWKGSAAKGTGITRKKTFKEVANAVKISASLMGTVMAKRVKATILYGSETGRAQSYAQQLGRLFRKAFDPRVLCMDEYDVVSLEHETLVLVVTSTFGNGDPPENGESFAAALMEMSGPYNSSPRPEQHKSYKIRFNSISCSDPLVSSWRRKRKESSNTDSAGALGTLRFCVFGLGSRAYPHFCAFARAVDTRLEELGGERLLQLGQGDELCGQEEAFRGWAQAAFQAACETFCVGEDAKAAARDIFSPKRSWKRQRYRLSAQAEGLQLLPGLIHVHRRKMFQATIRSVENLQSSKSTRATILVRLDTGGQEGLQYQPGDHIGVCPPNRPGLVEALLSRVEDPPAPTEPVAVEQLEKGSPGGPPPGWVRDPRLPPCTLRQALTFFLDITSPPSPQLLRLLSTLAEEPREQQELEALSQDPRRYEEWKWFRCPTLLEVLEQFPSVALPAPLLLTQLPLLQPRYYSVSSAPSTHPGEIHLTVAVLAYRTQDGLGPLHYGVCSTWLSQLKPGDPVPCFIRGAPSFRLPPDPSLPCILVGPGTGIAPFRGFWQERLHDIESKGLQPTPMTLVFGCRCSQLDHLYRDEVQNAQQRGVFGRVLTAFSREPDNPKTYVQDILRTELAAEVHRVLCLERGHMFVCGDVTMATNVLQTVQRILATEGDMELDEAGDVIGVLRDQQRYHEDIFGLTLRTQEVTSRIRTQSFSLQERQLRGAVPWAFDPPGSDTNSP
The conditions noted are these: DAN assay, HEK293 cells transfected with NOS isoform; cited from earlier work.

T2 sequence (P29475 whole entry): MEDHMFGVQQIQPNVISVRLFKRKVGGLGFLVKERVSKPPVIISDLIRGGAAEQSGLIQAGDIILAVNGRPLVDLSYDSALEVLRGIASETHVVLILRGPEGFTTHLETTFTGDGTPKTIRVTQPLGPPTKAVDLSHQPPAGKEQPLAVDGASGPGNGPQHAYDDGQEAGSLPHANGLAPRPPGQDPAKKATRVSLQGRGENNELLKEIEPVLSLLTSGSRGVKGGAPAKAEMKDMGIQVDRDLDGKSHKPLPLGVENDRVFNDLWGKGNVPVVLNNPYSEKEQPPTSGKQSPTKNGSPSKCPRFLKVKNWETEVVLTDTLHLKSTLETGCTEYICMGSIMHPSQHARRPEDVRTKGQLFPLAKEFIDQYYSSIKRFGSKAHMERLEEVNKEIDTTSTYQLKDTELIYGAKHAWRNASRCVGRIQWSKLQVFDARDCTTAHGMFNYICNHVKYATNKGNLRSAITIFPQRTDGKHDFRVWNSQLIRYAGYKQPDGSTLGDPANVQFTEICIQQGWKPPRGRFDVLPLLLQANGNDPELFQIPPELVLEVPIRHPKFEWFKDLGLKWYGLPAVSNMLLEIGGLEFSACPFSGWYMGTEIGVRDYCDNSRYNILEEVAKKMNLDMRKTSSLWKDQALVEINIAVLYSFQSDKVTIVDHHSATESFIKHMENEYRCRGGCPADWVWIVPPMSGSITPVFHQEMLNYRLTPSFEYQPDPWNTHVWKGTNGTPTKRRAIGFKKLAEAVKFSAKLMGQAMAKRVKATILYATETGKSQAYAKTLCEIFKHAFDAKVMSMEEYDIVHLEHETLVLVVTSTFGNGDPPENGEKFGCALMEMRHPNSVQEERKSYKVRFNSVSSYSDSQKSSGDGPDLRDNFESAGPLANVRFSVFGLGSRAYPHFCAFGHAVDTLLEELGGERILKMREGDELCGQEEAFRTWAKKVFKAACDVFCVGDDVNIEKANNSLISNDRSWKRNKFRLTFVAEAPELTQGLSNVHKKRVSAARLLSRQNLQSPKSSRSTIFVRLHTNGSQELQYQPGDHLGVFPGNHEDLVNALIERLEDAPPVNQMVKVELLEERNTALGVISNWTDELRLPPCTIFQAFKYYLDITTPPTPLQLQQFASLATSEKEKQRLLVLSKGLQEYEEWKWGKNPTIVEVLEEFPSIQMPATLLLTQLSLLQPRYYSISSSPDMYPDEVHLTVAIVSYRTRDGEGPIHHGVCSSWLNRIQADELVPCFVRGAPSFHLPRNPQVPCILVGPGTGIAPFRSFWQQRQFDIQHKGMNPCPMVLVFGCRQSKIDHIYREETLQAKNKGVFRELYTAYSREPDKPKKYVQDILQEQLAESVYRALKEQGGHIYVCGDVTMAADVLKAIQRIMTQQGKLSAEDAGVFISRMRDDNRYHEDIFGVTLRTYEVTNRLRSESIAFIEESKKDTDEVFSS

A word on the solubility: it is the concentration that dissolves in the medium under given conditions. `CC(=O)O.CN(CCCNCc1ccc2c(c1)OCO2)c1nc(-n2ccnc2)ns1` [Compound 2 acetate, N′-Benzo[1,3]dioxol-5-ylmethyl-N-(3-imidazol-1-yl-[1,2,4]thiadiazol-5-yl)-N-methyl-propane-1,3-diamine acetate salt]: the solubility in data set [1] (acetonitrile, organic solvent or mixture) is 2100 µg/mL; in data set [1] (dichloromethane, organic solvent or mixture) it was 10000 µg/mL; in data set [1] (ethanol, organic solvent or mixture), 8500 µg/mL; in data set [1] (ethyl acetate, organic solvent or mixture) it was 2000 µg/mL; in data set [1] (hexanes, organic solvent or mixture), 3 µg/mL; in data set [1] (isopropanol, organic solvent or mixture), 3700 µg/mL. The solubility was found to be 58300 µg/mL in data set [1] (methanol, organic solvent or mixture); 36700 µg/mL in data set [1] (propylene glycol, organic solvent or mixture); 44600 µg/mL in data set [1] (water); 101000 µg/mL in data set [1] (water:ethanol:propylene glycol (40:40:20), aqueous with cosolvent or surfactant or cyclodextrin). In addition, the “Weight % Change, Adsorption” value in data set [2] (5 Percent Relative Humidity), in data set [2] (15 Percent Relative Humidity), in data set [2] (25 Percent Relative Humidity), in data set [2] (35 Percent Relative Humidity), in data set [2] (45 Percent Relative Humidity) and in data set [2] (55 Percent Relative Humidity) was <1% throughout. The “Weight % Change, Adsorption” value in data set [2] (65 Percent Relative Humidity) was <1%; in data set [2] (75 Percent Relative Humidity), <1%; in data set [2] (85 Percent Relative Humidity), <3%; in data set [2] (95 Percent Relative Humidity) it was <5%. Further, the “Weight % Change, Desorption” value in data set [2] (5 Percent Relative Humidity), in data set [2] (15 Percent Relative Humidity), in data set [2] (25 Percent Relative Humidity), in data set [2] (35 Percent Relative Humidity), in data set [2] (45 Percent Relative Humidity) and in data set [2] (55 Percent Relative Humidity) was <1% throughout. For the same compound, the “Weight % Change, Desorption” value in data set [2] (65 Percent Relative Humidity) was <1%; in data set [2] (75 Percent Relative Humidity), <1%; in data set [2] (85 Percent Relative Humidity) it was <3%; in data set [2] (95 Percent Relative Humidity), <5%. Besides, the hygroscopicity entry in data set [2] is “significantly hygroscopic at high RH”. Also, in data set [2] (over the range of 5 to 85% relative humidity (RH)), the weight gain result was “minimal weight gain”.
One may read the EC50 as the midpoint of the concentration-response curve. Regarding “Benzo[1,3]dioxol-5-ylmethyl-{2-[2-(2-imidazol-1-yl-6-methyl-pyrimidin-4-yl)-pyrrolidin-1-yl]-ethyl}-amine [Compound 1]”, the “LPS Induced iNOS In Vivo, ED50” value in data set [3] is reported as “+ ((+), ED50 <10)”. Also, the EC50 in data set [4] is < 1000 nM; in data set [5], > 1000 nM; in data set [6], > 10000 nM.
As to `CN(CCCNCc1ccc2c(c1)OCO2)c1nc(-n2ccnc2)ns1.O=C(O)CCCCC(=O)O` [Compound 2 adipate, N′-Benzo[1,3]dioxol-5-ylmethyl-N-(3-imidazol-1-yl-[1,2,4]thiadiazol-5-yl)-N-methyl-propane-1,3-diamine adipate salt], the “Weight % Change, Adsorption” value in data set [2] (5 Percent Relative Humidity) is recorded as <0%; in data set [2] (15 Percent Relative Humidity), <0%; in data set [2] (25 Percent Relative Humidity), <0%; in data set [2] (35 Percent Relative Humidity), <0%; in data set [2] (45 Percent Relative Humidity) it was <1%; in data set [2] (55 Percent Relative Humidity), <1%. The “Weight % Change, Adsorption” value in data set [2] (65 Percent Relative Humidity) is on record as <1%; in data set [2] (75 Percent Relative Humidity), <2%; in data set [2] (85 Percent Relative Humidity), <3%; in data set [2] (95 Percent Relative Humidity), >6%. For the same compound, the “Weight % Change, Desorption” value is given as <0% in data set [2] (5 Percent Relative Humidity); <0% in data set [2] (15 Percent Relative Humidity); <0% in data set [2] (25 Percent Relative Humidity); <0% in data set [2] (35 Percent Relative Humidity); <1% in data set [2] (45 Percent Relative Humidity); <1% in data set [2] (55 Percent Relative Humidity). Also, the “Weight % Change, Desorption” value in data set [2] (65 Percent Relative Humidity) was <1%; in data set [2] (75 Percent Relative Humidity), <2%; in data set [2] (85 Percent Relative Humidity), <3%; in data set [2] (95 Percent Relative Humidity), >6%. Moreover, in data set [2], the “initial weight loss upon equilibration” value is “less than 1%”. For the same compound, in data set [2], the total weight gain result is listed as “over 6%”. For the same compound, in data set [2], the hygroscopicity entry was “hygroscopic, especially at elevated humidities”.
For `CN(CCCNCc1ccc2c(c1)OCO2)c1nc(-n2ccnc2)ns1` [Compound 2, N′-Benzo[1,3]dioxol-5-ylmethyl-N-(3-imidazol-1-yl-[1,2,4]thiadiazol-5-yl)-N-methyl-propane-1,3-diamine], the “LPS Induced iNOS In Vivo, ED50” value in data set [3] was “+ ((+), ED50 <10)”. In addition, the EC50 in data set [4] is < 1000 nM; in data set [5], > 1000 nM; in data set [6], > 10000 nM. For the same compound, the “initial weight loss upon equilibration” value in data set [2] was “approximately 0.16%”. The total weight gain entry in data set [2] is on record as “approximately 0.64%”. Further, the hygroscopicity entry in data set [2] is “not hygroscopic”.
For `CN(CCCNCc1ccc2c(c1)OCO2)c1nc(-n2ccnc2)ns1.Cl` [Compound 2 hydrochloride, N′-Benzo[1,3]dioxol-5-ylmethyl-N-(3-imidazol-1-yl-[1,2,4]thiadiazol-5-yl)-N-methyl-propane-1,3-diamine hydrochloride salt], the “Weight % Change, Adsorption” value in data set [2] (5 Percent Relative Humidity), in data set [2] (15 Percent Relative Humidity), in data set [2] (25 Percent Relative Humidity), in data set [2] (35 Percent Relative Humidity), in data set [2] (45 Percent Relative Humidity) and in data set [2] (55 Percent Relative Humidity) was <−1% in each case. Moreover, the “Weight % Change, Adsorption” value is <0% in data set [2] (65 Percent Relative Humidity), <0% in data set [2] (75 Percent Relative Humidity), <1% in data set [2] (85 Percent Relative Humidity) and <5% in data set [2] (95 Percent Relative Humidity). Further, the “Weight % Change, Desorption” value in data set [2] (5 Percent Relative Humidity) is reported as <−2%; in data set [2] (15 Percent Relative Humidity), <−1%; in data set [2] (25 Percent Relative Humidity) it was <−1%; in data set [2] (35 Percent Relative Humidity) it was <−1%; in data set [2] (45 Percent Relative Humidity), <−1%; in data set [2] (55 Percent Relative Humidity), <0%. In addition, the “Weight % Change, Desorption” value in data set [2] (65 Percent Relative Humidity) is <0%; in data set [2] (75 Percent Relative Humidity) it was <1%; in data set [2] (85 Percent Relative Humidity) it was <2%; in data set [2] (95 Percent Relative Humidity), <5%. For the same compound, the “initial weight loss upon equilibration” value in data set [2] is reported as < 1%. The total weight gain in data set [2] is < 5%. In addition, the hygroscopicity entry in data set [2] is “not hygroscopic”.
